Measured values taken from US5869500A, “Pyridone compounds useful in treating Alzheimer's disease” (Hoffmann-La Roche Inc., priority 1996, dated 1999).
Counter-ions that a name gives are not always drawn.

Assays:
[1] = tested on: Aβ production in HEK cells over-expressing Wild type β-APP; assay: Aβ production inhibition, sandwich-ELISA in HEK cells which over-express Wild type β-APP (SE-WT); assay type: cell-based, human; conditions: Homo sapiens; for IC50: HEK293, based on the respective plateau of maximum inhibition; for Emax: HEK293, maximum inhibition plateau, read-out: SE-WT max. inhibition %
Description: The effect of test substances on the inhibition of Aβ-amyloid production can be measured in the supernatant of cell cultures of β-APP expressed cells using ELISA tests or other quantitative determination methods for β-APP degradation products. Typically, 8×10^5 cells (e.g. HEK cells, which express recombinant human β-APP variants) are plated out in each well of a culture dish having 24 wells in growth media such as e.g. OPTIMEM (Gibco) and the test compound is then added. After an incubation period of 24 to 48 hours at 37° C. in a 10% CO2 atmosphere the supernatant is removed from the cell cultures and the β-APP degradation products (e.g. Aβ or β-[…]) are determined with the aid of ELISA (or sandwich ELISA) analysis or by means of quantitative immunoprecipitation (after metabolic radiolabelling of the cell proteins). Typically, 300 μl of the cell supernatant are tested according to the state of the art for ELISA tests in culture dishes having 96 wells. In the case of sandwich ELISA for Aβ, the binding antibody can be directed against the first 16 amino acids of Aβ-peptide (e.g. 6E10 Senetek, Maryland Heights, Mo.) and the detection antibody can be directed against amino acids 17-40 or 17-42 of Aβ and carries a detection system such as e.g. peroxidase. A simple ELISA test with an antibody, e.g. 22C11 (Boehringer Mannheim), can be used as the test for […]; the second antibody can be an anti-(mouse) Ig having a detection system, such as e.g. peroxidase. The peroxidase reaction can be carried out e.g. using a TMB substrate (BioRAD) and the measurements can be carried out at 650 nm using an ELISA reading apparatus. […] SE-SFAD signifies the Aβ production inhibition measured using sandwich-ELISA in HEK cells, SFAD signifies over-expressed mutated β-APP, and SE-WT signifies the Aβ production inhibition measured using sandwich-ELISA in HEK cells which over-express Wild type β-APP. The IC50 values are based on the respective plateau of maximum inhibition.

[2] = tested on: Aβ production in HEK cells over-expressing mutated β-APP (SFAD); assay: Aβ production inhibition, sandwich-ELISA in HEK cells, over-expressed mutated β-APP (SE-SFAD); assay type: cell-based, human; conditions: for IC50: based on the respective plateau of maximum inhibition; for Emax: read-out: SE-SFAD max. inhibition %
How it was run: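 HEK cells expressing recombinant human wild-type or mutated (SFAD) β-APP treated with compound for 24 to 48 hours at 37° C, 10% CO2. IC50 based on plateau of maximum inhibition.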

[3] = Homo sapiens, HEK293, HEK cells
[4] = Homo sapiens, HEK293, HEK cells, maximum inhibition plateau

| SMILES | IC50 [1] | Emax [1] | IC50 [2, 3] | Emax [2, 4] | IC50 ([2]; HEK cells) | SE-SFAD max. inhibition % ([2]; HEK cells, maximum inhibition plateau) |
| --- | --- | --- | --- | --- | --- | --- |
| COC1CN(C(=O)c2cc(-c3ccccc3)c(=O)n3ccc4ccsc4c23)C1 [Compound 39, 10-(3-Methoxy-azetidine-1-carbonyl)-8-phenyl-thieno[2,3-a]quinolizin-7-one] | 6 µM | 50% | 7 µM | 30% | – | – |
| COC[C@@H]1CCCN1C(=O)c1cc(-c2ccccc2)c(=O)n2ccc3ccsc3c12 [Compound 34, 10-(2-(S)-Methoxymethyl-pyrrolidine-1-carbonyl)-8-phenyl-thieno-[2,3-a]-quinolizin-7-one] | 4 µM | 60% | 9 µM | 50% | – | – |
| CCOC(=O)CN1CCN(C(=O)c2cc(-c3ccccc3)c(=O)n3ccc4ccsc4c23)CC1 [Compound 16, Ethyl [4-(7-oxo-8-phenyl-7H-thieno[2,3-a]quinolizine-10-carbonyl)-piperazin-1-yl]-acetate methanesulphonate] | 6 µM | 70% | 3 µM | 30% | – | – |
| O=C1CC[C@@H](COC(=O)c2cc(-c3ccccc3)c(=O)n3ccc4ccsc4c23)N1 [Compound 4, 5-Oxo-pyrrolidin-2-(S)-yl-methyl 7-oxo-8-phenyl-7H-thieno[2,3-a]-quinolizine-10-carboxylate] | 5 µM | 25% | 10 µM | 25% | – | – |
| COCCN(CCOC)C(=O)c1cc(-c2ccccc2)c(=O)n2ccc3ccsc3c12 [Compound 22, 7-Oxo-8-phenyl-7H-thieno[2,3-a]quinolizine-10-carboxylic acid bis-(2-methoxy-ethyl)-amide] | 2.5 µM | 80% | 2 µM | 80% | – | – |
| COC[C@H]1CCCN1C(=O)c1cc(-c2ccccc2)c(=O)n2ccc3ccsc3c12 [Compound 35, 10-(2-(R)-Methoxymethyl-pyrrolidine-1-carbonyl)-8-phenyl-thieno-[2,3-a]quinolizin-7-one] | 3 µM | 65% | 6 µM | 50% | – | – |
| COC1CCCN(C(=O)c2cc(-c3ccccc3)c(=O)n3ccc4ccsc4c23)C1 (stereo not shown) [Compound 14, 10-(3-Methoxy-piperidine-1-carbonyl)-8-phenyl-thieno[2,3-a]-quinolizine-7-on] | 8 µM | 70% | 2.3 µM | 50% | – | – |
| COC(=O)c1cc(-c2ccccc2)c(=O)n2ccc3ccc(Cl)cc3c12 [Compound 36, Methyl 10-chloro-4-oxo-3-phenyl-4H-pyrido [2,1-a]isoquinoline-1-carboxylate] | 1 µM | 60% | 2.8 µM | 40% | – | – |
| CCN(CCOC)C(=O)c1cc(-c2ccccc2)c(=O)n2ccc3ccc(Cl)cc3c12 [Compound 42, 10-Chloro-4-oxo-3-phenyl-4H-pyrido[2,1-a]isoquinoline-1-carboxylic acid ethyl-(2-methoxy-ethyl)-amide] | 0.9 µM | 100% | 3 µM | 100% | – | – |
| O=C(OCCN1CCOCC1)c1cc(-c2ccccc2)c(=O)n2ccc3ccsc3c12 [Compound 32, 2-Morpholin-4-yl-ethyl 7-oxo-8-phenyl-7H-thieno[2,3-a]quinolizine-10-carboxylate hydrochloride] | 3 µM | 100% | 30 µM | 100% | – | – |
| CC(=O)c1cc(-c2ccccc2)c(=O)n2ccc3ccsc3c12 [Compound 58, 10-Acetyl-8-phenyl-thieno[2,3-a]quinolizine-7-one] | 0.2 µM | 40% | 1 µM | 60% | – | – |
| COCCN(C(=O)c1cc(-c2ccccc2)c(=O)n2ccc3ccsc3c12)c1ccccc1 [Compound 23, 7-Oxo-8-phenyl-7H-thieno[2,3-a]quinolizine-10-carboxylic acid (2-methoxy-ethyl)phenyl-amide] | 3.4 µM | 100% | 6.7 µM | 100% | – | – |
| COC(=O)c1cc(-c2ccccc2OC)c(=O)n2ccc3ccsc3c12 [Compound 129, Methyl 8-(2-methoxy-phenyl)-7-oxo-7H-thieno[2,3-a]quinolizine-10-carboxylate] | 1.5 µM | 85% | – | – | 2.8 µM | 75% |
| COC1CCN(C(=O)c2cc(-c3ccccc3)c(=O)n3ccc4ccsc4c23)CC1 [Compound 13, 10-(4-Methoxy-piperidine-1-carbonyl)-8-phenyl-thieno[2,3-a]-quinolizin-7-one] | 4 µM | 80% | 5 µM | 30% | – | – |
| O=C(c1cc(-c2ccc(O)cc2)c(=O)n2ccc3ccsc3c12)N1CCC[C@@H]1CO [Compound 44, 10-(2-(R)-Hydroxymethyl-pyrrolidine-1-carbonyl)-8-(4-hydroxyphenyl)-thieno[2,3-a]quinolizin-7-one] | 5 µM | 50% | 6 µM | 50% | – | – |
| O=c1c(-c2ccccc2)cc(-c2nc(C3CC3)no2)c2c3sccc3ccn12 [Compound 62, 10-(3-Cyclopropyl-[1,2,4]oxadiazol-5-yl)-8-phenyl-thieno[2,3-a]-quinolizin-7-one] | 2.7 µM | 80% | 0.5 µM | 65% | – | – |
| O=C(ON1C(=O)CCC1=O)c1cc(-c2ccccc2)c(=O)n2ccc3ccsc3c12 [Compound 43, 2,5-Dioxo-pyrrolidin-1-yl 7-oxo-8-phenyl-7H-thieno[2,3-a]quinolizine-10-carboxylate] | 5 µM | 70% | 2 µM | 50% | – | – |
| COC1CCCCC1N(C)C(=O)c1cc(-c2ccccc2)c(=O)n2ccc3ccsc3c12 (stereo not shown) [Compound 26, 7-Oxo-8-phenyl-7H-thieno[2,3-a]quinolizine-10-(2-methoxycyclohexyl)-methyl-amide] | 1.2 µM | 100% | 5 µM | 80% | – | – |
| COCCN(C(=O)c1cc(-c2ccc(OCc3ccccc3)cc2)c(=O)n2ccc3cc(Br)sc3c12)c1ccccc1 [Compound 77, 8-(4-Benzyloxy-phenyl)-2-bromo-7-oxo-7H-thieno[2,3-a]quinolizine-10-carboxylic acid (2-methoxy-ethyl)-phenyl-amide] | 0.2 µM | 100% | 0.2 µM | 80% | – | – |
| O=C(OCCN1CCOC1=O)c1cc(-c2ccccc2)c(=O)n2ccc3ccsc3c12 [Compound 5, 2-(2-Oxo-oxazolidin-3-yl)-ethyl 7-oxo-8-phenyl-7H-thieno[2,3-a]-quinolizine-10-carboxylate] | 1.2 µM | 60% | 1 µM | 25% | – | – |
| CCCOC1CCN(C(=O)c2cc(-c3ccccc3)c(=O)n3ccc4ccsc4c23)C1 (stereo not shown) [Compound 10, 8-Phenyl-10-(3-propoxy-pyrrolidine-1-carbonyl)-thieno[2,3-a]-quinolizin-7-one] | 7 µM | 50% | 6.6 µM | 50% | – | – |
| CC(C)C[C@H](N)COC(=O)c1cc(-c2ccccc2)c(=O)n2ccc3ccsc3c12 [Compound 31, 2-(S)-Amino-4-methyl-pentyl 7-oxo-8-phenyl-7H-thieno[2,3-a]-quinolizine-10-carboxylate] | 1.2 µM | 55% | 5.3 µM | 100% | – | – |
